This note sets out measurements from patent publication US20140011853A1, “SUBSTITUTED 3-(BIPHENYL-3-YL)-8,8-DIFLUORO-4-HYDROXY-1-AZASPIRO[4.5]DEC-3-EN-2-ONES FOR THERAPY” (BAYER INTELLECTUAL PROPERTY GMBH, priority 2011, published 2014).

The nature of data set [1]: Plasma protein binding by equilibrium dialysis, rat. It is filed as in vitro ADME. The note with it: read-out: fu (rat). The protocol: The binding of test substances to plasma proteins is determined by equilibrium dialysis by means of the Ht-dialysis apparatus (96-well) made of Teflon and a semipermeable membrane (regenerated cellulose, MWCO 12-14K). This separates 150 μl each of a plasma side and a buffer side (50 mM phosphate buffer). The test substance is added in 2 concentrations (usually 3 and 0.3 μM) to the plasma side and binds to plasma proteins. The unbound fraction of the test substance passes through the membrane and is distributed on either side until equilibrium is established (after approx. 6-8 h at 37° C.). The substance concentration on the buffer side and the plasma side is determined by LC-MS analysis. For this, both sides are brought by dilution with buffer or plasma to the same matrix (10% plasma) and then precipitated with methanol. The free (unbound) fraction (fu) is calculated from the quotient of the buffer and plasma concentration. Stability tests and recovery tests are run concurrently as controls. In addition, the substance in buffer is dialysed against buffer, to check the nonspecific binding to apparatus and membrane and establishment of equilibrium. Because during incubation the osmotic pressure of the plasma proteins leads to dilution of the plasma (volume shift), this possible error is determined by weighing blank plasma samples and is included in the calculation of fu. Establishment of equilibrium and plasma stability should have a value not lower than 80% and the recovery should be at least 30%. A free fraction of <1% is regarded as high, between 1 and 10% as moderate and >10% as low plasma protein binding.

The test system of data set [2] is PC-3 prostate carcinoma xenograft. The experiment in a line: PC-3 prostate carcinoma xenograft model in the mouse. The note with it: for T/C: 17 days, 2 administrations per day. The protocol: Xenograft models in immunosuppressed mice were used to determine the antitumour activity in living organisms.
Use was made primarily of a prostate carcinoma model with hormone-independent human PC-3 cells in male nude mice (NMRI-nude (nu/nu) mice, Taconic M&B A/S). To this end, 3 million tumour cells (suspended in medium+Matrigel) 1:1, final 0.1 ml) were injected subcutaneously into the side of each animal. When the tumours extended to an area of 20-30 mm^2., the mice were randomized into therapy groups and therapy was initiated. […] At this point in time, the experiment was terminated in all groups and the prepared tumours were weighed. The T/C value was calculated as primary success parameter using the effect on the final tumour weight: mean tumour weight in the treatment group divided by mean of the tumour weight in the vehicle group.
Administration route: per os Vehicle: PEG400/ethanol/Solutol HS 15 (70/5/25, v/v/v) Administration volume: 10 ml/kg

In another data set the test system is human ACC1. The experiment in a line: Human ACC1 enzyme assay (ADP-Glo). It is filed as biochemical. For orientation: ADP-Glo first removes unused ATP, then detects ADP through luciferase.
Data set [3] is described as follows: Membrane affinity logMA (MA-Transil). Type of data set: physicochemical. The note with it: buffer pH 7.4.

`Cc1ccc(-c2ccc(Cl)c(F)c2)cc1C1=C(O)C2(CCC(F)(F)CC2)NC1=O` [Example 1-1, 3-(4′-Chloro-3′-fluoro-4-methylbiphenyl-3-yl)-8,8-difluoro-4-hydroxy-1-azaspiro[4.5]dec-3-en-2-one]: in data set [1], the fraction unbound is 0.0027. Besides, the T/C in data set [2] (40 mg/kg per os) worked out at 0.26; in data set [2] (80 mg/kg day 1-3, 70 mg/kg from day 4 onwards, per os), 0.26. In addition, the “Reduction in body weight in individual animals” value in data set [2] (80 mg/kg, 2 times per day, after 3 days) is reported as “more than 10%”.
`Cc1ccc(-c2ccc(Cl)cc2)cc1C1=C(O)C2(CCC(F)(F)CC2)NC1=O` [Example 1-2, 3-(4′-Chloro-4-methylbiphenyl-3-yl)-8,8-difluoro-4-hydroxy-1-azaspiro[4.5]dec-3-en-2-one] came in with a melting point of 105 °C. Moreover, the “Selectivity ACC1 vs. ACC2 (mean of the individual measurements ± standard deviation)” value in the data set with human ACC1 stood at 13.4 ± 4.5. In addition, the logMA in data set [3] is reported as 1.83 (1.7-1.9, n = 3).

As usually defined, the melting point is the temperature of the solid-liquid transition.
